These results are taken from patent publication US20260373497A1, “MOLECULAR MACHINES STIMULATE INTERCELLULAR CALCIUM WAVES AND CAUSE MUSCLE CONTRACTION” (William Marsh Rice University, priority 2022, published 2026).

Entries after “also recorded” stand apart in the source; their conditions may differ.

Series [1] in a line: Extinction coefficient by UV-Vis. The format is physicochemical. The note with it: UV-Vis in spectral-grade water, 16 μM. As to the method:
FIG. 13—Sample UV-Vis spectra of each MM taken at 16 μM in spectral-grade water.
Table 1. Properties of MM 1-4. Partition coefficients and total polar surface area were calculated using the molInspiration online calculator. milogP represents the logarithm of the partition coefficient between octanol and water, used to represent hydrophobicity (higher values are more hydrophobic). Rotation rates were provided using the thermodynamics of the thermal helix inversion step. MM structures provided for reference.

For series [2], the system named is Hydra vulgaris. As to the kind of experiment: Whole-body contraction of Hydra (Protocol II). The format is in vivo. As to conditions: for Contraction rate compared with light alone: Fisher's Exact Test, MM 2 P<0.00001, MM 1 P=0.0199, MM 3 P=0.5325, MM 4 P=0.0439; for Contraction peaks relative to sham stimulus: sham light, 0% laser duty cycle; for Signaling / contraction in Hydra (summary): in vivo, MM + light. As to the method: (§1) FIGS. 20A-20N—MM induce ICW and muscle contraction in vivo. (a) Image of a Hydra loaded into a microfluidic chamber with anatomical regions marked. Scale bar is 100 μm and applies to (a-c). (b) MM 1 (24 μM) loaded into Hydra for 24 h. (c) A Hydra expressing GCaMP7b in endodermal epitheliomuscular cells. The stimulation regions used for Protocols I and II are marked. Protocol 1 was used for body column stimulation (1 s pulse to a 10 μm diameter circular area) to trigger regional ICW. Protocol II was used for oral region stimulation (2 s pulse to the oral region, ~1000-2000 μm^2) to trigger whole-body contraction. (d) A regional ICW in a Hydra treated with MM 1 and stimulated with 405-nm light via Protocol I. The indicated times represent the time after stimulation at which the image was taken. Scale bar applies to both images and is 100 μm. (e-i) Responses observed from Hydra treated with (e) MM 1, (f) MM 2, (g) MM 3, (h) MM 4, or (i) DMSO control (“C”) and stimulated for 1 s using Protocol I. Bold, colored traces represent the average trace (n=25 across 5 Hydra). Gray traces represent individual experiments. (j) Bar graph showing ICW response rate and (k) box-and-whisker plot showing ICW delay time of Hydra stimulated using Protocol I across MM treatment conditions (n=25 experiments across at least 5 Hydra per condition). ICW responses were defined as ΔF/F0>1. (1) Representative contraction in a Hydra treated with MM 2 and stimulated via Protocol II. Scale bar applies to both images and is 100 μm. (m) Representative GCaMP7b fluorescence trace in a Hydra treated with MM 2 and stimulated using Protocol II. (n) Bar graph showing contractile response rates across treatment conditions for Hydra stimulated for 2 s using Protocol II (at least 50 experiments across ≥5 Hydra per condition). Error bars in bar graphs represent the standard error of the mean. See Example 6 for more info on the calculation of ICW and contractile response rates. For all plots, cyan lines indicate the time of stimulus with 405-nm light (9.0×10^2 W cm^−2), during which no data was collected. * P-value<0.05, ** P-value<0.01, *** P-value<0.001, **** P-value<0.0001.
(§2) Prior to stimulation experiments, Hydra were loaded with MM by incubating with solutions containing 24 μM of MM for 24 h (FIG. 20B). Distinct stimulation protocols were employed to cause either local ICW or whole-body contraction (FIG. 20C). First, treatment of MM-loaded Hydra with pulses of laser light administered to a small region of the body column (Protocol I) caused ICW emanating from the site of stimulation (FIGS. 20D and 21). Similar to ICW evoked in vitro, these ICW propagated throughout the Hydra body column according to the degree of electrical connectivity of the stimulated cells. Distinct propagation kinetics were observed when stimulating different regions of Hydra simultaneously. Second, MM activation was used to attempt to drive whole-body Hydra contractions by administering laser stimuli to the oral region (Protocol II).
(§3) Hydra Preparation, Stimulation, and Imaging: Hydra were raised in Hydra medium containing CaCl2·2H2O, MgCl2·6H2O, KNO3, NaHCO3, and MgSO4 in deionized water at 18 °C in a light-cycled (12 h light, 12 h dark) incubator. Hydra were fed with an excess of freshly brined Artemia Nauplii (Brine Shrimp Direct, Ogden, UT, #BSEP8Z) three times a week. All experiments were performed at room temperature after starving the animals for 2 days. The transgenic line expressing GCaMP6s under the Actin promoter in neurons was generated by embryonic microinjection by the Yuste lab at Columbia University (Addgene: plasmid #102558). The transgenic line expressing GCaMP7b under the Ef1α promoter in endodermal epitheliomuscular tissue was generated by embryonic microinjection in a collaboration by the Robinson lab (Rice University) and the Juliano Lab (University of California, Davis).
(§4) Hydra were incubated with chosen MM 24 h before imaging. […]

Series [3] deals with Hydra vulgaris. As to the kind of experiment: Regional ICW in Hydra (Protocol I). The format is in vivo. The note with it: 24 μM MM; for Regional ICW upon body column stimulation: 24 h, 405 nm, 1 s. On the procedure: as §1, §2, §3, §4

For the compound `CC1Cc2ccc3ccccc3c2C1=C1c2ccccc2Sc2cc(NCCN(C)C)ccc21` (centres unmarked) [MM 1], the “Extinction Coeff @ 400 nm” value in series [1] was ~11,000 L mol^−1cm^−1. In series [2], the “Contraction rate compared with light alone” value was “at a significantly higher rate than light alone” and the “Contraction peaks relative to sham stimulus” value is given as “do not occur in concert with sham stimulus”. The “Contraction peaks relative to light stimulus” value in series [2] (Protocol II, with light) was “most often occur in concert with stimuli”. In series [2] (with light, Protocol II), the “Success Rate (contractile response rate)” value came to 68%, the “Total Null” value came out at 14 and the “Total Successes (contractile responses)” value stood at 48. Besides, in series [2] (without light (sham)), the “Success Rate (contractile response rate)” value worked out at 29%, the “Total Null” value was found to be 28 and the “Total Successes (contractile responses)” value was found to be 13. Also, in series [3], the “ICW delay (response) time” value was 12.76 s and the “Regional ICW upon body column stimulation” value was “consistently elicited robust regional ICW”.
On to `CC1Cc2cc(NCCN(C)C)c3ccccc3c2C1=C1c2ccccc2-c2ccccc21` (centres unmarked) [MM 3], for which the “Extinction Coeff @ 400 nm” value in series [1] is reported as ~7,500 L mol^−1cm^−1. Further, in series [2], the “Contraction rate compared with light alone” value is given as “did not elicit contraction at a significantly higher rate than light alone”, the “Signaling / contraction in Hydra (summary)” value is on record as “Small responses were observed” and the “Contraction peaks relative to sham stimulus” value is “do not occur in concert with sham stimulus”. In addition, the “Contraction peaks relative to light stimulus” value in series [2] (Protocol II, with light) is “occasionally follow stimuli”. In addition, in series [2] (with light, Protocol II), the “Success Rate (contractile response rate)” value was 38%, the “Total Null” value turned out to be 2 and the “Total Successes (contractile responses)” value amounted to 18. Also, in series [2] (without light (sham)), the “Success Rate (contractile response rate)” value came out at 12%, the “Total Null” value worked out at 17 and the “Total Successes (contractile responses)” value is reported as 12. For the same compound, in series [3], the “ICW delay (response) time” value came to 15.46 s and the “Regional ICW upon body column stimulation” value was “not significantly different from solvent-only controls”.
In the case of `CN(C)CCNc1ccc2c(c1)Sc1ccccc1C2=C1CCc2ccc3ccccc3c21` [MM 4], the “Extinction Coeff @ 400 nm” value in series [1] was ~13,000 L mol^−1cm^−1. Besides, in series [2], the “Contraction rate compared with light alone” value is “more effective than light alone”, the “Signaling / contraction in Hydra (summary)” value is given as “able to drive non-trivial signaling behavior in vivo” and the “Contraction peaks relative to sham stimulus” value was “do not occur in concert with sham stimulus”. For the same compound, the “Contraction peaks relative to light stimulus” value in series [2] (Protocol II, with light) is “most often occur in concert with stimuli”. Further, in series [2] (with light, Protocol II), the “Success Rate (contractile response rate)” value was found to be 65%, the “Total Null” value is reported as 5 and the “Total Successes (contractile responses)” value turned out to be 36. In addition, in series [2] (without light (sham)), the “Success Rate (contractile response rate)” value was found to be 20%, the “Total Null” value worked out at 15 and the “Total Successes (contractile responses)” value was found to be 6. In series [3], the “ICW delay (response) time” value came out at 16.6 s and the “Regional ICW upon body column stimulation” value was “consistently elicited robust regional ICW; also recorded: elicited regional ICW in Hydra despite causing only weak responses in vitro”.
